Biological target: T1, Human PTP1B (1-321) (Homo sapiens, UniProt P18031)
T1 construct: Human PTP1B (1-321) was cloned from a human cDNA library; made in house; host or cells: E. coli
T1 sequence (P18031 1-321): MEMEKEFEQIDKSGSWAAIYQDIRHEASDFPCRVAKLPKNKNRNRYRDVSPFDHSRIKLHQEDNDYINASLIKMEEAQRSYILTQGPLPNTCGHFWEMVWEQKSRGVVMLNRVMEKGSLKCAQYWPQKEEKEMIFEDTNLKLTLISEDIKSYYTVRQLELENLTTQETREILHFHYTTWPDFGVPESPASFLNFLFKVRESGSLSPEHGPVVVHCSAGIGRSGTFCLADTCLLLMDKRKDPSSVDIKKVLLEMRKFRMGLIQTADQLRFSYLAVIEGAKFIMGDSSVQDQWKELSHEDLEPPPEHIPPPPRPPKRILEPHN
Experiment: In vitro inhibition of PTP1B (PTPase assay, Malachite Green / DiFMUP)
Type: biochemical
Details: read-out: IC50 (μM), PTP1B inhibitory activity
Protocol: Human PTP1B (1-321) was cloned from a human cDNA library using conventional molecular biology techniques. The cDNA sequence was identical to the published human PTP1B sequence (Accession number M33689). The protein was expressed and purified from E. coli as described by Barford D. et.al, J. Mol Biol (1994) 239,726-730).
The measurement of PTPase activity was carried out using one of two methods:
The first method for the measurement of PTP1B inhibitory activity a tyrosine phosphorylated peptide based on the amino acid sequence of insulin receptor tyrosine autophosphorylation site 1146 (TRDI(pY)E) was used as substrate. The reaction conditions were as follows:
PTP1B (0.5-2nM ) was incubated with compound for 15 min in buffer containing 37.5 mM Bis-Tris buffer pH 6.2, 140 mMNaCl, 0.05% BSA and 2 mM DTT. The reaction was started by the addition of 50 μM substrate. After 20 min at room temperature (22-25° C.) the reaction was stopped with KOH and the amount of free phosphate measured using Malachite Green as previously described. (Harder et al. 1994 Biochem J. 298; 395).
The second method was used for the measurement of general PTPase inhibitory activity across a panel of PTPases the substrate (6,8-difluoro-4-methylumbelliferyl phosphate (DiFMUP; from Molecular Probes) was used at the Km for each enzyme. The buffer conditions were identical as in the Malachite Green assay. The reaction was stopped with KOH. In this case the dephosphoryated product becomes fluorescent and the fluorescence read. (Excitiation: […]/Emmission: 460 nM).

IC50 [µM]	SMILES
29.2	Nc1nc(N)c2c(cc(-c3ccc(Cl)s3)c3[nH]ccc32)n1 [Example 6, 6-(5-Chloro-thiophen-2-yl)-7H-pyrrolo[3,2-f]quinazoline-1,3-diamine]
24.1	Nc1cccc(-c2cc3nc(N)nc(N)c3c3cc[nH]c23)c1 [Example 8, 6-(3-Amino-phenyl)-7H-pyrrolo[3,2-f]quinazoline-1,3-diamine]
89.5	Nc1nc(N)c2c(cc(-c3cccc([N+](=O)[O-])c3)c3[nH]ccc32)n1 [Example 4, 6-(3-Nitro-phenyl)-7H-pyrrolo[3,2-f]quinazoline-1,3-diamine]
23.8	CCOc1cccc(-c2cc3nc(N)nc(N)c3c3cc[nH]c23)c1 [Example 2, 6-(3-Ethoxy-phenyl)-7H-pyrrolo[3,2-f]quinazoline-1,3-diamine]

From US7262297B2, “Diaminopyrroloquinazolines compounds as protein tyrosine phosphatase inhibitors” (Hoffmann-La Roche Inc., priority 2003, dated 2007)
